Read-outs that look alike come from different tables or passages of the source.
Assays:
[1] = test system: MDR1-MDCK cell monolayers; details: dog, MDCK-MDR1, 120 min, 5 μM, pH 7.4
MDR1 (P-gp) [2] = experiment: in vitro; details: dog, MDCK-MDR1, pH 7.4
MDR1 [3] = experiment: in vitro; details: dog; for Papp A→B at 120 min, 5 μM: MDCK-MDR1, pH 7.4, MDCK-MDR1: Papp A-B (10^−6, cm/s); for Papp B→A at 120 min, 5 μM: MDCK-MDR1, pH 7.4, MDCK-MDR1: Papp B-A (10^−6, cm/s)
MDR1 (P-gp) [4] = experiment: MDCK-MDR1 permeability assay, blood-brain-barrier penetration potential; details: dog, MDCK-MDR1, pH 7.4, MDCK-MDR1 Efflux Ratio
[5] = test system: MDR1-MDCK cell monolayers; experiment: as above
MDR1 [6] = experiment: as above; details: dog, MDCK-MDR1, pH 7.4
SMN protein = SMN protein assay (MSD) in SMA patient fibroblasts (GM03813); assay type: cell-based, human
Procedure, shortened: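 SMA patient fibroblasts GM03813 (7000 cells/well) treated 48 h with compounds from 2.5 μM to 0.6 nM. Lysate SMN protein quantified by MSD immunoassay against an SMN standard curve (1 to 19.5 μg/ml) on each plate, giving absolute amounts.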

SMN FL and SMN Δ7 = experiment: Quantitative splicing assay (SMN) in SMA patient fibroblasts (GM03813); assay type: cell-based; details: Homo sapiens, Fibroblast; class symbol; read-out: SMN2 Splicing FL EC50 (nM)*
Description: Spinal muscular atrophy (SMA) patient fibroblasts (GM03813, Coriell) are plated in 96-well plates at 50,000 cells/well. […] Treated cells are lysed and cDNA synthesized using the Fast Advanced Cells-to-Ct kit (Thermofisher A35378) according to the manufacturer's instructions. 2 μL of each cDNA are used in qPCR reactions. […] Reactions are run in a Quant Studio 6 qPCR instrument with default settings.

[7] = dog, MDCK-MDR1, 120 min, 5 μM, pH 7.4

Row | Compound | MDCK-MDR1: % Recov A-B (%) [1] | MDCK-MDR1: % Recov B-A (%) [1] | efflux ratio at 120 min, 5 μM (MDR1 (P-gp) [2]) | Papp A→B at 120 min, 5 μM (MDR1 [3]) | Papp B→A at 120 min, 5 μM (MDR1 [3]) | efflux ratio at 120 min, 5 μM (MDR1 (P-gp) [4]) | MDCK-MDR1: % Recov A-B (%) ([5]; A-B) | MDCK-MDR1: % Recov B-A (%) ([5]; B-A) | Papp A→B at 120 min, 5 μM (MDR1 [6]) | Papp B→A at 120 min, 5 μM (MDR1 [6]) | EC50 (SMN protein) | MDCK-MDR1: Papp A-B (10^−6, cm/s) [1] | MDCK-MDR1: Papp B-A (10^−6, cm/s) [1] | MDCK-MDR1 Efflux Ratio [5, 7] | EC50 (SMN FL and SMN Δ7) | MDCK-MDR1: Papp A-B (10^−6, cm/s) ([5]; A-B) | MDCK-MDR1: Papp B-A (10^−6, cm/s) ([5]; B-A) | MDCK-MDR1 Efflux Ratio ([5]; MDCK-MDR1)
1 | CNC(=O)/C=C/c1cc(O)c(-c2cnc(N(C3CC3)[C@H]3C[C@]4(C)CC[C@@](C)(N4)[C@H]3F)cn2)cc1F (single isomer, unassigned) [Compound 79E2] | 91% | 89% | 26 | 2.05 ×10⁻⁶ cm/s | 52.7 ×10⁻⁶ cm/s |  |  |  |  |  |  |  |  |  |  |  |  | 
2 | CN(c1cnc(-c2ccc(-c3cn[nH]c3)cc2O)cn1)[C@@H]1C[C@@]2(C)CC[C@](C)(N2)[C@@H]1F [Compound 22E1, 2-(5-(((1S,2R,3R,5R)-2-fluoro-1,5-dimethyl-8-azabicyclo[3.2.1]octan-3-yl)(methyl)amino)pyrazin-2-yl)-5-(1H-pyrazol-4-yl)phenol] |  |  |  |  |  | 10 | 63% | 78% | 4.14 ×10⁻⁶ cm/s | 39.8 ×10⁻⁶ cm/s | 501 to 10000 nM |  |  |  |  |  |  | 
3 | COc1cc(-c2cc(O)c(-c3cnc(N(C)[C@@H]4C[C@@]5(C)CC[C@](C)(N5)[C@@H]4F)cn3)cc2F)cnn1 (single isomer, unassigned) [Compound 64E2] | 69% | 78% |  |  |  |  |  |  |  |  | 101 to 500 nM | 4.1 10^−6, cm/s | 44.1 10^−6, cm/s | 11 |  |  |  | 
4 | CN(c1cnc(-c2cc(F)c(-c3ccn(C)c(=O)c3)cc2O)cn1)[C@@H]1C[C@@]2(C)CC[C@](C)(N2)[C@@H]1F [Compound 62E1, 4-(2-fluoro-4-(5-(((1S,2R,3R,5R)-2-fluoro-1,5-dimethyl-8-azabicyclo[3.2.1]octan-3-yl)(methyl)amino)pyrazin-2-yl)-5-hydroxyphenyl)-1-methylpyridin-2(1H)-one] |  |  |  | 2.82 ×10⁻⁶ cm/s | 30.7 ×10⁻⁶ cm/s | 11 |  |  |  |  | 501 to 10000 nM | 2.88 10^−6, cm/s | 41.5 10^−6, cm/s | 14 |  |  |  | 
5 | CN(c1cnc(-c2cc(F)c(-c3cnn(C)c3)cc2O)cn1)[C@H]1C[C@@H]2CCC(N2)[C@H]1F (single isomer, unassigned) [Compound 17E2] | 24% | 52% |  |  |  |  |  |  |  |  | 0.01 to 15 nM | 4.68 10^−6, cm/s | 18 10^−6, cm/s | 4 | 101 to 500 nM |  |  | 
6 | CN(c1cnc(-c2ccc(-c3cn[nH]c3)cc2O)cn1)[C@H]1C[C@]2(C)CC[C@@](C)(N2)[C@H]1F [Compound 22E2, 2-(5-(((1R,2S,3S,5S)-2-fluoro-1,5-dimethyl-8-azabicyclo[3.2.1]octan-3-yl)(methyl)amino)pyrazin-2-yl)-5-(1H-pyrazol-4-yl)phenol] |  |  |  |  |  | 10 | 66% | 81% | 3.49 ×10⁻⁶ cm/s | 34.5 ×10⁻⁶ cm/s | 501 to 10000 nM |  |  |  |  |  |  | 
7 | 2-(5-(((1S,2S,3R,5R)-2-fluoro-8-azabicyclo[3.2.1]octan-3-yl)(methyl)aniino)pyrazin-2-yl)-5-(6-methoxypyrimidin-4-yl)phenol [Compound 34E1] |  |  |  |  |  |  | 20% | 60% |  |  | 101 to 500 nM |  |  |  |  | 2.78 10^−6, cm/s | 8.79 10^−6, cm/s | 3
8 | COc1cc(-c2ccc(-c3cnc(N(C)[C@@H]4CC5CC[C@H](N5)[C@@H]4F)cn3)c(O)c2)cnn1 (single isomer, unassigned) [Compound 26E1] | 45% | 74% |  | 5.06 ×10⁻⁶ cm/s | 24.4 ×10⁻⁶ cm/s | 5 |  |  |  |  | 501 to 10000 nM |  |  |  | 101 to 500 nM |  |  | 
9 | Cn1cc(-c2ccc(-c3cnc(N(C4CC4)[C@@H]4CC5CC[C@H](N5)[C@@H]4F)cn3)c(O)c2)cn1 (single isomer, unassigned) [Compound 49E2] | 48% | 63% |  |  |  |  |  |  |  |  | 501 to 10000 nM | 4.55 10^−6, cm/s | 34.9 10^−6, cm/s | 8 |  |  |  | 
10 | COc1cc(-c2ccc(-c3cnc(N(C)[C@@H]4C[C@@]5(C)CC[C@](C)(N5)[C@@H]4F)cn3)c(O)c2)cnn1 [Compound 25E1, 2-(5-(((1S,2R,3R,5R)-2-fluoro-1,5-dimethyl-8-azabicyclo[3.2.1]octan-3-yl)(methyl)amino)pyrazin-2-yl)-5-(6-methoxypyridazin-4-yl)phenol] | 45% | 64% |  | 5.6 ×10⁻⁶ cm/s | 39.6 ×10⁻⁶ cm/s | 7 |  |  |  |  | 501 to 10000 nM |  |  |  | 501 to 10000 nM |  |  | 
